Like-named read-outs stand apart in the source and are kept apart here.
Columns and labels:
LDL = details: in vitro, LDL incubated with antioxidizer; cited from earlier work
men and women = details: considerable amounts of Vitamin E; cited from earlier work
HepG2 = assay: Incorporation of 14C-acetate in the lipidic classes in HepG2 cells (hypolipidaemic activity); format: cell-based, human; details: for Incorporation of 14C-acetate: Cholesterol / Incorporation of 14C-acetate: Esters of Cholesterol / Incorporation of 14C-acetate: Fatty acids / Incorporation of 14C-acetate: Phospholipids / Incorporation of 14C-acetate: Triglycerides: per culture plate; for inhibition at 1 µM / inhibition at 10 µM: Homo sapiens, HepG2
Description: The hypolipidaemic activity of some lactones of general formula I has been evaluated in vitro by testing their influence on the synthesis of the cell lipids like cholesterol, fatty acids, triglycerides, phospholipids and esters of the cholesterol, described by Barnhard J. W. in Amer. J. Cardiol., 62, 52B-56B, (1988).
The synthesis of the lipids has been studied by incubating cells coming from a human hepatocarcinoma (HepG2-American Type Culture Collection) in presence of ^14 C-acetate (Amersham) and by measuring the incorporation of the radioactive precursor in the main lipidic classes by means of chromatographic separation on silica gel (Merck F254), according to the method described by Skipski V. P. et al. in Biochem. Biophys. Acta, 106, 386-396, (1965) and by means of scintillographic dosage with β-counter Beckman scintillator, according to the method reported by Gherardi E. and Calandra S. in Lipids, 15, 108-112, (1980).
The data reported in tables 4 and 5 refer to the incorporation of ^14 C-acetate in the various lipidic classes, expressed as radioactivity in count per minute (cpm) for culture plate, for some lactones, in comparison with the probucol and the gemfibrozil, used as positive controls and with the solvent ethanol, used as negative control.
The percents in brackets express the lowering of the ^14 C-acetate in the various lipidic classes referred to the control, i.e. to the physiological solution. […] The confluence cells have been exposed to the products tested for 24 hours; at the end of the incubation the monolayer has been solubilized and the optical density of the lysate at λ260 nm has been measured. The value of the absorbance is direct function of the amount of the macromolecules present and therefore indirectly of the number of the cells.

In the case of Vitamin E, the “atherogenic potentialities of the LDL” value (LDL) is listed as “remarkably lowered” and the “risk of vascular pathologies” value (men and women) is listed as “lowering of the risk of vascular pathologies”.

For Cc1ccc(C)c(OCCCC(C)(C)C(=O)O)c1 [Gemfibrozil, reference compound], the “influence on the synthesis of the triglycerides” value (HepG2) was “remarkable activity”, the “Incorporation of 14C-acetate: Cholesterol” value (HepG2; 1 μM) was 20820 cpm and the “Incorporation of 14C-acetate: Esters of Cholesterol” value (HepG2; 1 μM) was 968 cpm. The “Incorporation of 14C-acetate: Fatty acids” value (HepG2; 1 μM) was 299 cpm, the “Incorporation of 14C-acetate: Phospholipids” value (HepG2; 1 μM) was 132598 cpm and the “Incorporation of 14C-acetate: Triglycerides” value (HepG2; 1 μM) was 84593 cpm. For the same compound, the “Incorporation of 14C-acetate: Cholesterol” value (HepG2; 10 μM) was 25306 cpm, the “Incorporation of 14C-acetate: Esters of Cholesterol” value (HepG2; 10 μM) was 1156 cpm and the “Incorporation of 14C-acetate: Fatty acids” value (HepG2; 10 μM) was 376 cpm. For the same compound, the “Incorporation of 14C-acetate: Phospholipids” value (HepG2; 10 μM) was 164252 cpm, the “Incorporation of 14C-acetate: Triglycerides” value (HepG2; 10 μM) was 96533 cpm and the inhibition at 1 µM (HepG2; 1 μM, read-out: Incorporation of 14C-acetate: Cholesterol, percent referred to physiological solution) was 34%. For the same compound, the inhibition at 1 µM (HepG2; 1 μM, read-out: Incorporation of 14C-acetate: Esters of Cholesterol, percent referred to physiological solution) was 76%, the inhibition at 1 µM (HepG2; 1 μM, read-out: Incorporation of 14C-acetate: Fatty acids, percent referred to physiological solution) was 55% and the inhibition at 1 µM (HepG2; 1 μM, read-out: Incorporation of 14C-acetate: Phospholipids, percent referred to physiological solution) was 47%. It also gave an inhibition at 1 µM (HepG2; 1 μM, read-out: Incorporation of 14C-acetate: Triglycerides, percent referred to physiological solution) of 22%, an inhibition at 10 µM (HepG2; 10 μM, read-out: Incorporation of 14C-acetate: Cholesterol, percent referred to physiological solution) of 20% and an inhibition at 10 µM (HepG2; 10 μM, read-out: Incorporation of 14C-acetate: Esters of Cholesterol, percent referred to physiological solution) of 71%. For the same compound, the inhibition at 10 µM (HepG2; 10 μM, read-out: Incorporation of 14C-acetate: Fatty acids, percent referred to physiological solution) was 44%, the inhibition at 10 µM (HepG2; 10 μM, read-out: Incorporation of 14C-acetate: Phospholipids, percent referred to physiological solution) was 34% and the inhibition at 10 µM (HepG2; 10 μM, read-out: Incorporation of 14C-acetate: Triglycerides, percent referred to physiological solution) was 11%. The “activity as regards the synthesis of the esters of the cholesterol” value (HepG2; summary of Table 4) was 70-75%.

Source: US5608084A, “Lactones with antioxidising and hypolipidaemic activity useful in the therapy of the atherosclerosis” (priority 1994, dated 1997)
